Results published in ChEMBL document CHEMBL6096634, “Exploration of novel 20S proteasome activators featuring anthraquinone structures and their application in hypoxic cardiomyocyte protection” (Bioorg Med Chem, 2024).
Where “and” joins values, the source holds several entries; their conditions need not be identical. Equal entries are not always repeated. Calls of active or inactive are those of the source. The rule behind the calls is not given here.

Key:
20S proteasome [1] = assay: (§1) Activation of human erythrocyte-derived 20s proteosome using CT-L as peptide substrate by fluorescence based analysis; format: cell-based
[2] = biological target: T1, 20S proteasome (Homo sapiens) (UniProt P49721+P20618+P28074+P28062+P28065+P28072+P25786+P25787+P25788+P25789+P28066+P60900+O14818+Q8TAA3+P40306+A5LHX3+P49720+P28070+Q99436); assay: as §1; format: cell-based; conditions: for EC200: filed as activator
[3] = biological target: T1, 20S proteasome (Homo sapiens); assay: Activation of human erythrocyte-derived 20s proteosome using CT-L as peptide substrate at 10 uM by fluorescence based analysis relative to control; format: cell-based; conditions: filed as activator
[4] = biological target: 26S proteasome (Homo sapiens) (UniProt Q99460+P49721+P20618+P28074+P28062+P28065+P28072+O00487+P25786+P25787+P25788+P25789+P28066+P60900+O14818+Q8TAA3+P40306+A5LHX3+P49720+P28070+Q99436+Q16186+P35998+P62191+P43686+P62333+P17980+P62195+Q13200+O43242+O00232+O00231+Q15008+P51665+Q9UNM6+P55036+P48556+P60896); assay: Activation of 26s proteosome (unknown origin); format: protein-complex assay
H9c2 [5] = assay: Protection against hypoxia-induced cell damage in rat H9c2 cells at 0.025 uM incubated for 14 hrs by MTT assay; format: functional, cell-based
[6] = biological target: T1, 20S proteasome (Homo sapiens); assay: Activation of human erythrocyte-derived 20s proteosome assessed as fold maximum enhancement using CT-L as peptide substrate by fluorescence based analysis; format: cell-based; conditions: filed as activator
[7] = biological target: T1, 20S proteasome (Homo sapiens); assay: Activation of human erythrocyte-derived 20s proteosome assessed as fold maximum enhancement using T-L as peptide substrate by fluorescence based analysis; format: cell-based; conditions: filed as activator
20S proteasome [8] = assay: (§2) Activation of human erythrocyte-derived 20s proteosome using Casp-L as peptide substrate by fluorescence based analysis; format: cell-based
[9] = biological target: T1, 20S proteasome (Homo sapiens); assay: as §2; format: cell-based; conditions: filed as activator
HEK293 = assay: Inhibition of […]-induced ER stress in HEK293 cells harbouring XBP1-delta DBD-Luc cells assessed as decrease in luciferase activity incubated for 8 hrs by […]; format: functional, cell-based; conditions: Homo sapiens, dose 10-20 µM
20S proteasome [10] = assay: (§3) Activation of human erythrocyte-derived 20s proteosome using T-L as peptide substrate by fluorescence based analysis; format: cell-based
[11] = biological target: T1, 20S proteasome (Homo sapiens); assay: as §3; format: cell-based; conditions: filed as activator
[12] = biological target: T1, 20S proteasome (Homo sapiens); assay: Activation of human erythrocyte-derived 20s proteosome assessed as fold maximum enhancement using Casp-L as peptide substrate by fluorescence based analysis; format: cell-based; conditions: filed as activator
H9c2 [13] = assay: Upregulation of Ki-67 expression in rat H9c2 cells at 0.1 uM under hypoxic condition by qRT-PCR analysis; format: functional, cell-based
H9c2 [14] = assay: Anti-apoptotic activity in rat H9c2 cells at 0.1 uM preincubated for 24 hrs followed by incubation under hypoxic condition for 18 hrs by Annexin V-FITC and PI staining based flow cytometry analysis; format: functional, cell-based; conditions: time 42.0 hrs
H9c2 [15] = assay: Anti-apoptotic activity in rat H9c2 cells assessed as necrotic cells at 0.1 uM preincubated for 24 hrs followed by incubation under hypoxic condition for 18 hrs by Annexin V-FITC and PI staining based flow cytometry analysis (reference value: 0.50%); format: functional; conditions: time 42 hrs
H9c2 [16] = assay: Anti-apoptotic activity in rat H9c2 cells assessed as viable cells at 0.1 uM preincubated for 24 hrs followed by incubation under normoxic condition for 18 hrs by Annexin V-FITC and PI staining based flow cytometry analysis (reference value: 94.7%); format: functional; conditions: time 42 hrs, read-out: Activity
H9c2 [17] = assay: Protection against hypoxia-induced cell damage in rat H9c2 cells at 0.05 uM incubated for 14 hrs by MTT assay; format: functional, cell-based
H9c2 [18] = assay: Anti-apoptotic activity in rat H9c2 cells at 0.1 uM preincubated for 24 hrs followed by incubation under normoxic condition for 18 hrs by Annexin V-FITC and PI staining based flow cytometry analysis; format: functional, cell-based; conditions: time 42.0 hrs
H9c2 [19] = assay: Upregulation of Ki-67 expression in rat H9c2 cells at 0.1 uM under normoxic condition by qRT-PCR analysis; format: functional, cell-based
H9c2 [20] = assay: Protection against hypoxia-induced cell damage in rat H9c2 cells at 0.1 uM incubated for 14 hrs by MTT assay; format: functional, cell-based
H9c2 [21] = assay: Effect on PCNA expression in rat H9c2 cells at 0.1 uM under hypoxic condition by qRT-PCR analysis; format: functional, cell-based
H9c2 [22] = assay: Anti-apoptotic activity in rat H9c2 cells at 0.1 uM under hypoxic condition by TUNEL staining based analysis; format: functional, cell-based
H9c2 [23] = assay: Anti-apoptotic activity in rat H9c2 cells assessed as early apoptotic cells at 0.1 uM preincubated for 24 hrs followed by incubation under hypoxic condition for 18 hrs by Annexin V-FITC and PI staining based flow cytometry analysis (reference value: 4.06%); format: functional; conditions: time 42 hrs
H9c2 [24] = assay: Effect on PCNA expression in rat H9c2 cells at 0.1 uM under normoxic condition by qRT-PCR analysis; format: functional, cell-based
H9c2 [25] = assay: Anti-apoptotic activity in rat H9c2 cells at 0.1 uM under normoxic condition by TUNEL staining based analysis; format: functional, cell-based
H9c2 [26] = assay: Anti-apoptotic activity in rat H9c2 cells assessed as necrotic cells at 0.1 uM preincubated for 24 hrs followed by incubation under normoxic condition for 18 hrs by Annexin V-FITC and PI staining based flow cytometry analysis (reference value: 0.60%); format: functional; conditions: time 42 hrs
H9c2 [27] = assay: Anti-apoptotic activity in rat H9c2 cells assessed as viable cells at 0.1 uM preincubated for 24 hrs followed by incubation under hypoxic condition for 18 hrs by Annexin V-FITC and PI staining based flow cytometry analysis (reference value: 85.85%); format: functional; conditions: time 42 hrs, read-out: Activity
H9c2 [28] = assay: Anti-apoptotic activity in rat H9c2 cells assessed as late apoptotic cells at 0.1 uM preincubated for 24 hrs followed by incubation under hypoxic condition for 18 hrs by Annexin V-FITC and PI staining based flow cytometry analysis (reference value: 8.60%); format: functional; conditions: time 42 hrs
H9c2 [29] = assay: Anti-apoptotic activity in rat H9c2 cells assessed as late apoptotic cells at 0.1 uM preincubated for 24 hrs followed by incubation under normoxic condition for 18 hrs by Annexin V-FITC and PI staining based flow cytometry analysis (reference value: 3.68%); format: functional; conditions: time 42 hrs
H9c2 [30] = assay: Anti-apoptotic activity in rat H9c2 cells assessed as early apoptotic cells at 0.1 uM preincubated for 24 hrs followed by incubation under normoxic condition for 18 hrs by Annexin V-FITC and PI staining based flow cytometry analysis (reference value: 0.75%); format: functional; conditions: time 42 hrs
[31] = biological target: T1, 20S proteasome (Homo sapiens); assay: Activation of 20s proteosome (unknown origin) mediated chymotrypsin-like activity assessed as fold maximum enhancement; format: protein-complex assay; conditions: filed as activator
[32] = biological target: T1, 20S proteasome (Homo sapiens); assay: (§4) Activation of 20s proteosome (unknown origin) mediated chymotrypsin-like activity; format: protein-complex assay; conditions: filed as activator
20S proteasome [33] = assay: as §4; format: protein-complex assay, Homo sapiens

EC50 (20S proteasome [1])	EC200 [2]	Activity [3]	fold change (FC) [11]	Structure (SMILES)	further results
–	–	68.6%	–	O=C(NCCN1CCOCC1)c1cc(O)c2c(c1)C(=O)c1cccc(O)c1C2=O	Activity [2]: inactive
1330 nM	0.12 µM	425%	5.83	CC(C)CNc1cc(Nc2ccc(N3CCOCC3)cc2)c2c3c(onc13)-c1ccccc1C2=O	Activity (H9c2 [17]): Active; inhibition (HEK293): Active
2090 nM	0.19 µM	175%	2.08	Cc1cccc(Nc2cc(NCCC(C)C)c3noc4c3c2C(=O)c2ccccc2-4)c1	–
2260 nM	1.67 µM	567%	6.5	Cc1cccc(NC(=O)c2cc(O)c3c(c2)C(=O)c2cccc(O)c2C3=O)c1	–
–	0.91 µM	438%	4.31	CCOC(=O)[C@]1(c2ccccc2)N=C(c2ccc(OC)cc2)N(Cc2ccccc2)[C@@H]1c1ccc(NCc2ccccc2)cc1	fold change (FC) [31]: 8.3; EC200 [32]: 1.4 µM
3300 nM	1.41 µM	361%	4.71	CC(C)CNc1cc(NC2CC2)c2c3c(onc13)-c1ccccc1C2=O	–

Continued, compound first:

Structure (SMILES)	EC50 (20S proteasome [1])	EC200 [2]	Activity [3]	fold change (FC) [11]	further results
Cc1cccc(Nc2cc(NCC(C)C)c3noc4c3c2C(=O)c2ccccc2-4)c1	1830 nM and 850 nM	0.46 µM and 0.38 µM	472%	5.98	Activity [4]: inactive; Activity (H9c2 [5]): Active; fold change (FC) [6]: 6.22; fold change (FC) [7]: 4.37; EC50 (20S proteasome [8]): 1900 nM; EC200 [9]: 0.93 µM; inhibition (HEK293): Active; EC50 (20S proteasome [10]): 2330 nM; EC200 [11]: 0.75 µM; fold change (FC) [12]: 9.77
CN1CCN(c2ccc(NC(=O)c3cc(O)c4c(c3)C(=O)c3cccc(O)c3C4=O)cc2)CC1	6120 nM	3.85 µM	549%	7.32	–
O=C1c2cccc(O)c2C(=O)c2c(O)cc(C(=O)N3CCc4ccccc4C3)cc21	4020 nM	1.14 µM	350%	3.79	–
Cc1ccccc1Nc1cc(NCC(C)C)c2noc3c2c1C(=O)c1ccccc1-3	3380 nM	0.67 µM	486%	6.38	Activity (H9c2 [13]): Active; Activity (H9c2 [14]): Active; Activity (H9c2 [15]): 1.34%; viability at 0.1 µM (H9c2 [16]): 94.6%; Activity (H9c2 [17]): Active; Activity (H9c2 [18]): inactive; Activity (H9c2 [19]): Active; Activity (H9c2 [20]): Active; Activity (H9c2 [21]): inactive; Activity (H9c2 [22]): Active; Activity (H9c2 [23]): 1.18%; Activity (H9c2 [24]): inactive; Activity (H9c2 [25]): inactive; Activity (H9c2 [26]): 1.3%; viability at 0.1 µM (H9c2 [27]): 92.8%; Activity (H9c2 [28]): 4.73%; Activity (H9c2 [29]): 3.53%; Activity (H9c2 [30]): 0.65%; inhibition (HEK293): Active
CC1(C)CC[C@]2(C(=O)O)CC[C@]3(C)C(=CC[C@@H]4[C@@]5(C)CC[C@H](O)C(C)(C)[C@@H]5CC[C@]43C)[C@@H]2C1 [OLEANOLIC_ACID]	–	–	–	–	fold change (FC) [31]: 8; EC50 (20S proteasome [33]): 2700 nM
Cc1cccc(Nc2cc(NCCN3CCOCC3)c3noc4c3c2C(=O)c2ccccc2-4)c1	–	–	47.9%	–	Activity [2]: inactive
